Test system: human adipose tissue derived mesenchymal stem cells (hAT-MSCs)
Assay: Adipocyte differentiation promoting effect: adiponectin expression (ELISA) in differentiating mesenchymal stem cells
Format: cell-based
Set-up: Adiponectin (pg/ml, Avg ± S.D.): unit of the concentration uncertain
Conditions: for Adiponectin (pg/ml, Avg ± S.D.): medium collected on 14th day, ELISA; for expression level of adiponectin (in words): IDX differentiation medium + material, 14th day, summary of Table 1
Description: In order to examine the adipocyte differentiation promoting effect of the compounds prepared in the Example, the following test was carried out.
Adiponectin is a typical protein hormone secreted from adipocytes. It has been reported that as adipocytes are differentiated, the expression of adiponectin is increased. Therefore, the adipocyte differentiation promoting effect was confirmed by measuring the amount of adiponectin expressed in the cell culture medium when treated with the novel compound of the present invention, which is an indicator of adipocyte differentiation promoting.
The adipocyte differentiation was performed by culturing human adipose tissue derived mesenchymal stem cells (hAT-MSCs) from Lonza Inc. (Walkersville, Md., USA) according to Lonza's guidelines. The adipocyte differentiation was carried out using the method recommended by Lonza Inc., except that the adipocyte differentiation of adipose-derived mesenchymal stem cells is induced by using troglitazone (TRO) instead of indomethacin. Specifically, the mesenchymal stem cells were differentiated into adipocytes by adding the medium for adipocyte differentiation (hereinafter referred to as IDX), which was prepared by mixing […] of insulin, […] of Dexamethasone (DEXA), 0.5 mM of isobutylmethylxanthine (IBMX) and […] of TRO, to the culture medium of mesenchymal stem cells, and then culturing it.
In order to determine the expression level of adiponectin, after the medium for adipocyte differentiation was collected on the 14th day of differentiation, the amount of adiponectin was quantified using the Adiponectin ELISA Kit (R & D systems, Cat. No. DY1065) (each data value was corrected by the control group). The specific measurement method using Adiponectin ELISA Kit was as follows.
First, the capture antibody was reacted in a 96-well plate, washed with washing buffer solution, and then the material shown in Table 1 below was added and reacted at room temperature for 2 hours. Thereafter, while washing three times every time when going through each step, the detection antibody, the HRP enzyme, the substrate solution, and the stop solution were added in order and reacted for the time indicated in the protocol. After the final reaction, the absorbance was measured at a wavelength of 450 nm using a spectrophotometer.

[1] = IDX differentiation medium + material at 60 (unit uncertain)

Row | Compound | Adiponectin (pg/ml, Avg ± S.D.) [1] [pg/mL] | expression level of adiponectin (in words) | Adiponectin (pg/ml, Avg ± S.D.) (IDX differentiation medium + material at 400 (unit uncertain)) [pg/mL] | Adiponectin (pg/ml, Avg ± S.D.) (IDX differentiation medium + material (concentration not given)) [pg/mL]
1 | O=C(/C=C/c1ccc2c(c1)OCO2)OCc1cc(=O)c(O)co1 [Seletinoid G] | 1505 ± 109 |  |  | 
2 | CC1=CCCC(C)(C)C1/C=C/C(=O)OCc1cc(=O)c(O)co1 (stereo not drawn) [compound of example (Formula 1), 3-(2,6,6-trimethyl-cyclohex-2-enyl)-propenoic acid 5-hydroxy-4-oxo-4H-pyran-2-ylmethyl ester] | 1730 ± 120 | increases almost similarly to that with Glibenclamide |  | 
3 | O=c1cc(CO)occ1O [Kojic acid] |  | not increased | 303 ± 98 | 
4 | COc1ccc(Cl)cc1C(=O)NCCc1ccc(S(=O)(=O)NC(=O)NC2CCCCC2)cc1 [Glibenclamide] |  |  |  | 1920 ± 100

Source: US10208009B2, “Hydroxyl pyranone compound, method for producing same, and cosmetics composition comprising compound” (AMOREPACIFIC CORPORATION, priority 2015, dated 2019)
